Structures are written as SMILES.

Data set [1] relates to MPanc-96 orthotopic tumors. The data set is described as follows: Tumor growth and metastasis in scid mice, MPanc-96 orthotopic. As to conditions: for liver metastasis, difference versus control / lung metastasis, difference versus control / tumor burden, difference versus control / lung metastasis, mean / liver metastasis, mean / tumor burden (primary tumor volume by bioluminescence), mean: MPanc-96; for lung metastasis, mean: control mean=5.9×10^7; for liver metastasis, mean: control mean=9.4×10^8; for tumor burden (primary tumor volume by bioluminescence), mean: end of six weeks, cromolyn 5 mg per kg daily i.p., gemcitabine 125 mg per kg bi-weekly i.p., control mean=1.1×10^10. Type of data set: in vivo. As to the method: FIGS. 5A-5F show the effect of cromolyn on MPanc-96 tumor growth and metastasis in vivo. MPanc-96 cells stably expressing the firefly luciferase gene were injected orthotopically into 4-week-old male CB 17 scid mice. […] Mice were divided into four groups of five mice each with an equivalent mean tumor size between groups. […] One group was treated with water (control), one group received gemcitabine bi-weekly (125 mg per kg body weight bi-weekly by intraperitoneal injection), one group was administered cromolyn daily (5 mg per kg body weight daily by intraperitoneal injection), and the final group was given the combination of cromolyn and gemcitabine. All groups were treated for six weeks. Bioluminescent imaging was done weekly to assess tumor growth. […] Means and 95% confidence intervals from two independent experiments are shown (n=20). Two-tailed two-sample (unpaired) Student's t-tests were used to determine P values. The anti-tumorigenic capability of the drug cromolyn was assessed in 4-week-old male CB 17 scid mice (n=20) carrying orthopic tumors of BxPC-3, MPanc96, and Panc-1 cells stably expressing a Lenti-luc reporter. All mouse experiments were reviewed and approved by the Institutional Animal Care and Use Committee of UT MD Anderson Cancer Center. All mice were maintained in a sterile environment. Cages, bedding, food, and water were all autoclaved. All mice were maintained on a daily 12-hour light/12-hour dark cycle, according to the institutional animal welfare guidelines. BxPC-3, MPanc96, and Panc-1 cells carrying the Lenti-luc reporter gene were grown to 80% confluence, harvested by incubation with trypsin-EDTA, washed twice in PBS, and resuspended to a final concentration of 4.0×10^6 cells/mL. Each mouse (n=20 mice per cell line) was injected (into the pancreas) with cell suspensions (50 μL). […] This initial tumor volume was used to divide the mice into four groups of five mice each, such that the mean tumor size was equal between groups (FIGS. 4A, 5A, and 6A). To allow enough time to observe differences among treatment groups, the mice were followed for the next 5 weeks. One group of mice was then treated biweekly with a sub-maximal concentration of gemcitabine (125 mg per kg body weight by i.p. injection). A second group was treated with a daily injection of cromolyn (5 mg per kg body weight by i.p. injection). A third group was treated with both bi-weekly gemcitabine and daily cromolyn. The control group was treated daily with vehicle. Treatments were continued for 5 weeks, and the effects on the tumor burden and metastasis were analyzed by weekly bioluminescence imaging (FIGS. 4B, 5B, and 6B). At the end of the experiment the mice were anesthetized with 1.5% isofluorane/air mixture and killed by cervical dislocation. […] Before imaging, mice were placed in an acrylic chamber, anesthetized with 1.5% isofluorane/air mixture, and injected i.p. with 15 mg/mL of luciferin potassium salt in PBS at a dose of 150 mg per kg body weight. A digital grey scale image of each mouse was acquired, followed by acquisition and overlay of a pseudocolor image representing the spatial distribution of detected photons emerging from active luciferase within the mouse. Tumor volume was quantified as the sum of all detected photons within the region of the tumor per second. At the end of experiment, the mice were killed, and tumors were surgically removed and weighed. After the primary tumors were removed, cancer cell dissemination and metastasis was visualized using IVIS imaging, and metastatic colonies were counted. Subsequently, tissues were fixed with formaldehyde, and histology was used to verify the accuracy of the bioluminescence data.

A further data set relates to Panc-1 orthotopic tumors. Nature of the data set: Tumor growth and metastasis in scid mice, Panc-1 orthotopic. Format: in vivo. The following applies: for effect on liver or lung metastasis: Panc-1. As to the method: FIGS. 6A-6F show the effect of cromolyn on Panc-1 tumor growth and metastasis in vivo. Panc-1 cells stably expressing the firefly luciferase gene were injected orthotopically into 4-week-old male CB 17 scid mice. […] Mice were divided into four groups of five mice each with an equivalent mean tumor size between groups. […] One group was treated with water (control), one group received gemcitabine bi-weekly (125 mg per kg body weight bi-weekly by intraperitoneal injection), one group was administered cromolyn daily (5 mg per kg body weight daily by intraperitoneal injection), and the final group was given the combination of cromolyn and gemcitabine. All groups were treated for six weeks. Bioluminescent imaging was done weekly to assess tumor growth. […] Means and 95% confidence intervals from two independent experiments are shown (n=20). Two-tailed two-sample (unpaired) Student's t-tests were used to determine P values.
The anti-tumorigenic capability of the drug cromolyn was assessed in 4-week-old male CB 17 scid mice (n=20) carrying orthopic tumors of BxPC-3, MPanc96, and Panc-1 cells stably expressing a Lenti-luc reporter. All mouse experiments were reviewed and approved by the Institutional Animal Care and Use Committee of UT MD Anderson Cancer Center. All mice were maintained in a sterile environment. Cages, bedding, food, and water were all autoclaved. All mice were maintained on a daily 12-hour light/12-hour dark cycle, according to the institutional animal welfare guidelines.
BxPC-3, MPanc96, and Panc-1 cells carrying the Lenti-luc reporter gene were grown to 80% confluence, harvested by incubation with trypsin-EDTA, washed twice in PBS, and resuspended to a final concentration of 4.0×10^6 cells/mL. Each mouse (n=20 mice per cell line) was injected (into the pancreas) with cell suspensions (50 μL). Bioluminescent imaging to determine tumor volume was performed 1 week after injection because the tumors became established within this amount of time. This initial tumor volume was used to divide the mice into four groups of five mice each, such that the mean tumor size was equal between groups (FIGS. 4A, 5A, and 6A). To allow enough time to observe differences among treatment groups, the mice were followed for the next 5 weeks. One group of mice was then treated biweekly with a sub-maximal concentration of gemcitabine (125 mg per kg body weight by i.p. injection). A second group was treated with a daily injection of cromolyn (5 mg per kg body weight by i.p. injection). A third group was treated with both bi-weekly gemcitabine and daily cromolyn. The control group was treated daily with vehicle. Treatments were continued for 5 weeks, and the effects on the tumor burden and metastasis were analyzed by weekly bioluminescence imaging (FIGS. 4B, 5B, and 6B). At the end of the experiment the mice were anesthetized with 1.5% isofluorane/air mixture and killed by cervical dislocation.
Bioluminescence imaging was conducted using a cryogenically cooled IVIS 100 imaging system coupled to a data acquisition computer running Living Image software (Xenogen Corp., Alameda, Calif.). Before imaging, mice were placed in an acrylic chamber, anesthetized with 1.5% isofluorane/air mixture, and injected i.p. with 15 mg/mL of luciferin potassium salt in PBS at a dose of 150 mg per kg body weight. A digital grey scale image of each mouse was acquired, followed by acquisition and overlay of a pseudocolor image representing the spatial distribution of detected photons emerging from active luciferase within the mouse. Tumor volume was quantified as the sum of all detected photons within the region of the tumor per second. At the end of experiment, the mice were killed, and tumors were surgically removed and weighed. After the primary tumors were removed, cancer cell dissemination and metastasis was visualized using IVIS imaging, and metastatic colonies were counted. […]

For `O=C(O)c1cc(=O)c2c(OCC(O)COc3cccc4oc(C(=O)O)cc(=O)c34)cccc2o1` [cromolyn, disodium 1,3-bis[(2′-carboxylatochromon-5′-yl)oxy]-2-hydroxypropane], in data set [1], the “liver metastasis, difference versus control” value is given as 7.2×10^8 photons/sec; the “lung metastasis, difference versus control” value is recorded as 5.6×10^7 photons/sec; the “tumor burden, difference versus control” value was 6.2×10^9 photons/sec; the “lung metastasis, mean” value is reported as 3.2×10^6 photons/sec. Besides, in data set [1], the “liver metastasis, mean” value is 2.2×10^8 photons/sec and the “tumor burden (primary tumor volume by bioluminescence), mean” value is reported as 4.8×10^9 photons/sec. In addition, the “effect on body weight” value in data set [1] (MPanc-96 model, up to 6 weeks) was “no effect on body weight”. For the same molecule, in the data set with Panc-1 orthotopic tumors, the “effect on liver or lung metastasis” value is “neither cromolyn nor gemcitabine nor the combination reduced liver or lung metastasis”. Moreover, the “effect on body weight” value with Panc-1 orthotopic tumors (Panc-1 model, up to 6 weeks) is recorded as “no effect on body weight”. The “tumor development in Panc-1 model” value in the data set with Panc-1 orthotopic tumors (cromolyn 5 mg per kg daily i.p., alone or with gemcitabine) was “did not reduce tumor development or increase the effectiveness of gemcitabine”.
In the case of `Nc1ccn([C@@H]2O[C@H](CO)[C@@H](O)C2(F)F)c(=O)n1` [gemcitabine], in data set [1], the “liver metastasis, difference versus control” value was 8.1×10^8 photons/sec; the “lung metastasis, difference versus control” value was 5.4×10^7 photons/sec; the “tumor burden, difference versus control” value is reported as 6.9×10^9 photons/sec; the “lung metastasis, mean” value is 5.0×10^6 photons/sec. In addition, in data set [1], the “liver metastasis, mean” value is 1.2×10^8 photons/sec and the “tumor burden (primary tumor volume by bioluminescence), mean” value is recorded as 4.1×10^9 photons/sec. The “effect on liver or lung metastasis” value in the data set on Panc-1 orthotopic tumors is given as “neither cromolyn nor gemcitabine nor the combination reduced liver or lung metastasis”. For the same molecule, in the data set on Panc-1 orthotopic tumors (Panc-1 model), the “body weight, difference versus control” value is 4.8 g. Besides, the “body weight at the end of the experiment, mean” value with Panc-1 orthotopic tumors (Panc-1 model, control mean=32.0 g) was 27.2 g.

The record behind these values is patent US8252807B2, “Methods of inhibiting the interaction between S100 and the receptor for advanced glycation end-products” (Board of Regents, The University of Texas System, priority 2007, dated 2012).
